Values quoted from earlier work in PMC11999338, “Factor XI localization in human deep venous thrombus and function of activated factor XI on venous thrombus formation and hemostasis” (Research and Practice in Thrombosis and Haemostasis, 2025).
Read-outs that look alike come from different tables or passages of the source.

Experiments:
[1] = set-up: method as in PMID 33450079; conditions: phase I, approximately 14 days in the fed state in healthy individuals; cited from earlier work
[2] = system: inferior vena cava thrombus; set-up: method as in PMID 21614454; conditions: rabbits, i.v. administration; cited from earlier work
[3] = patients with atrial fibrillation; asundexian 50 mg, once daily; cited from earlier work
[4] = system: VTE; conditions: cited from earlier work
[5] = system: venous thrombus; set-up: method as in PMID 23925504; conditions: mice, cited from earlier work
[6] = patients after knee arthroplasty, phase II

Nc1ccc(-c2nc([C@H]3CCc4cc(-c5cc(Cl)ccc5-n5cnnn5)cc(=O)n43)c(F)[nH]2)c(F)n1 (stereo in doubt) [ONO-7684]
safety and tolerability [1]: showed safety and tolerability

CC(C)(C)NC(=O)N1CCN(C(=O)N2C(=O)[C@H](CCCN=C(N)N)[C@H]2C(=O)O)CC1 [BMS-262084]
silk thread-induced thrombus in the inferior vena cava [2]: reduced

COc1ccc(-n2nc(C(N)=O)c3c2C(=O)N(c2ccc(N4CCCCC4=O)cc2)CC3)cc1 [apixaban]
bleeding rate [3]: 2.4%
major or clinically relevant nonmajor bleeding rate [4, 6]: ~2%

enoxaparin
venous thrombus formation ([5]; ferric chloride-induced): strongly inhibited
bleeding time ([5]; tail cut): prolonged
major or clinically relevant nonmajor bleeding rate [4, 6]: ~5.9%

osocimab: human monoclonal anti-FXI antibody
major or clinically relevant nonmajor bleeding rate ([4]; human, in vivo): approximately 4.7%
incidence of VTE at 10 to 13 days ([4]; single infusion, compared with enoxaparin, patients after knee arthroplasty): noninferiority
